Results reported in patent US20120214862A1, “MODULATION OF FACTOR 7 EXPRESSION” (ISIS Pharmaceuticals, Inc., priority 2009, published 2012).
In the oligonucleotide strings, read from the 5' end, every base follows the letter of its sugar. An asterisk marks phosphorothioate; unmarked linkages are phosphodiester. Other units and linkages are bracketed, terminal groups are in braces. A string of capitals states the bases alone. e = 2'-O-(2-methoxyethyl) (MOE); [5mC] = 5-methylcytosine; d = 2'-deoxy (DNA)

Tested on: human Factor 7 mRNA
Assay: Antisense inhibition of human Factor 7 mRNA in HepB3 cells, lipofectin, 50 nM, real-time RT-PCR
Type: cell-based
Settings: HepB3 cells; for % Inhibition (human Factor 7 mRNA): Example 4, lipofectin, 50 nM, ~24 h, relative to untreated control
Method in brief: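 Cells plated at 4,000 per well were transfected and harvested after approximately 24 hours of treatment. Transcript levels, measured with primer probe set RTS 2927, were normalised to total RNA by RIBOGREEN®. Values are percent inhibition relative to untreated control cells.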

[1] = gapmers targeted to nucleobases 11830 to 11869 of SEQ ID NO: 1 (Table 9)
[2] = gapmers targeted to nucleobases 13760 to 13789 of SEQ ID NO: 1 (Table 10)
[3] = gapmers targeted to nucleobases 14707 to 14732 of SEQ ID NO: 1 (Table 11)

Substance | % Inhibition of human Factor 7 mRNA levels [1] [%] | % Inhibition (human Factor 7 mRNA) [%] | further results
422238 (antisense eA*e[5mC]*dA*dA*dT*dG*dG*dT*d[5mC]*dA*dG*dG*dG*d[5mC]*dT*eG*eG*eT*eT*eT) [compound 422238] | 64 |  | 
422239 (antisense eG*eA*d[5mC]*dA*dA*dT*dG*dG*dT*d[5mC]*dA*dG*dG*dG*d[5mC]*eT*eG*eG*eT*eT) [compound 422239] | 67 |  | 
422240 (antisense eA*eG*dA*d[5mC]*dA*dA*dT*dG*dG*dT*d[5mC]*dA*dG*dG*dG*e[5mC]*eT*eG*eG*eT) [compound 422240] | 66 |  | 
422241 (antisense eG*eA*dG*dA*d[5mC]*dA*dA*dT*dG*dG*dT*d[5mC]*dA*dG*dG*eG*e[5mC]*eT*eG*eG) [compound 422241] | 61 |  | 
422242 (antisense eG*eG*dA*dG*dA*d[5mC]*dA*dA*dT*dG*dG*dT*d[5mC]*dA*dG*eG*eG*e[5mC]*eT*eG) [compound 422242] | 64 |  | 
422243 (antisense eA*eG*dG*dA*dG*dA*d[5mC]*dA*dA*dT*dG*dG*dT*d[5mC]*dA*eG*eG*eG*e[5mC]*eT) [compound 422243] | 62 |  | 
422244 (antisense eG*eA*dG*dG*dA*dG*dA*d[5mC]*dA*dA*dT*dG*dG*dT*d[5mC]*eA*eG*eG*eG*e[5mC]) [compound 422244] | 55 |  | 
422245 (antisense eT*eG*dA*dG*dG*dA*dG*dA*d[5mC]*dA*dA*dT*dG*dG*dT*e[5mC]*eA*eG*eG*eG) [compound 422245] | 24 |  | 
422246 (antisense e[5mC]*eT*dG*dA*dG*dG*dA*dG*dA*d[5mC]*dA*dA*dT*dG*dG*eT*e[5mC]*eA*eG*eG) [compound 422246] | 46 |  | 
422247 (antisense eG*e[5mC]*dT*dG*dA*dG*dG*dA*dG*dA*d[5mC]*dA*dA*dT*dG*eG*eT*e[5mC]*eA*eG) [compound 422247] | 36 |  | 
422248 (antisense eG*eG*d[5mC]*dT*dG*dA*dG*dG*dA*dG*dA*d[5mC]*dA*dA*dT*eG*eG*eT*e[5mC]*eA) [compound 422248] | 60 |  | 
422249 (antisense eT*eG*dG*d[5mC]*dT*dG*dA*dG*dG*dA*dG*dA*d[5mC]*dA*dA*eT*eG*eG*eT*e[5mC]) [compound 422249] | 52 |  | 
422250 (antisense e[5mC]*eT*dG*dG*d[5mC]*dT*dG*dA*dG*dG*dA*dG*dA*d[5mC]*dA*eA*eT*eG*eG*eT) [compound 422250] | 54 |  | 
422251 (antisense eG*e[5mC]*dT*dG*dG*d[5mC]*dT*dG*dA*dG*dG*dA*dG*dA*d[5mC]*eA*eA*eT*eG*eG) [compound 422251] | 36 |  | 
422253 (antisense e[5mC]*e[5mC]*dG*d[5mC]*d[5mC]*dG*dG*d[5mC]*dT*d[5mC]*dT*dG*d[5mC]*dT*d[5mC]*eA*eT*e[5mC]*e[5mC]*e[5mC]) [compound 422253] |  |  | % Inhibition of human Factor 7 mRNA levels [2]: 61%
422254 (antisense e[5mC]*e[5mC]*d[5mC]*dG*d[5mC]*d[5mC]*dG*dG*d[5mC]*dT*d[5mC]*dT*dG*d[5mC]*dT*e[5mC]*eA*eT*e[5mC]*e[5mC]) [compound 422254] |  |  | % Inhibition of human Factor 7 mRNA levels [2]: 42%
422255 (antisense eA*e[5mC]*d[5mC]*d[5mC]*dG*d[5mC]*d[5mC]*dG*dG*d[5mC]*dT*d[5mC]*dT*dG*d[5mC]*eT*e[5mC]*eA*eT*e[5mC]) [compound 422255] |  |  | % Inhibition of human Factor 7 mRNA levels [2]: 30%
422256 (antisense e[5mC]*eA*d[5mC]*d[5mC]*d[5mC]*dG*d[5mC]*d[5mC]*dG*dG*d[5mC]*dT*d[5mC]*dT*dG*e[5mC]*eT*e[5mC]*eA*eT) [compound 422256] |  |  | % Inhibition of human Factor 7 mRNA levels [2]: 29%
422257 (antisense e[5mC]*e[5mC]*dA*d[5mC]*d[5mC]*d[5mC]*dG*d[5mC]*d[5mC]*dG*dG*d[5mC]*dT*d[5mC]*dT*eG*e[5mC]*eT*e[5mC]*eA) [compound 422257] |  |  | % Inhibition of human Factor 7 mRNA levels [2]: 65%
422258 (antisense eG*e[5mC]*d[5mC]*dA*d[5mC]*d[5mC]*d[5mC]*dG*d[5mC]*d[5mC]*dG*dG*d[5mC]*dT*d[5mC]*eT*eG*e[5mC]*eT*e[5mC]) [compound 422258] |  |  | % Inhibition of human Factor 7 mRNA levels [2]: 66%
422259 (antisense e[5mC]*eG*d[5mC]*d[5mC]*dA*d[5mC]*d[5mC]*d[5mC]*dG*d[5mC]*d[5mC]*dG*dG*d[5mC]*dT*e[5mC]*eT*eG*e[5mC]*eT) [compound 422259] |  |  | % Inhibition of human Factor 7 mRNA levels [2]: 61%
422260 (antisense eG*e[5mC]*dG*d[5mC]*d[5mC]*dA*d[5mC]*d[5mC]*d[5mC]*dG*d[5mC]*d[5mC]*dG*dG*d[5mC]*eT*e[5mC]*eT*eG*e[5mC]) [compound 422260] |  |  | % Inhibition of human Factor 7 mRNA levels [2]: 56%
422261 (antisense eT*eG*d[5mC]*dG*d[5mC]*d[5mC]*dA*d[5mC]*d[5mC]*d[5mC]*dG*d[5mC]*d[5mC]*dG*dG*e[5mC]*eT*e[5mC]*eT*eG) [compound 422261] |  |  | % Inhibition of human Factor 7 mRNA levels [2]: 47%

Substance | % Inhibition of human Factor 7 mRNA levels [1] [%] | % Inhibition (human Factor 7 mRNA) [%] | further results
422262 (antisense e[5mC]*eT*dG*d[5mC]*dG*d[5mC]*d[5mC]*dA*d[5mC]*d[5mC]*d[5mC]*dG*d[5mC]*d[5mC]*dG*eG*e[5mC]*eT*e[5mC]*eT) [compound 422262] |  |  | % Inhibition of human Factor 7 mRNA levels [2]: 0%
422263 (antisense eG*eG*dA*dA*dG*dA*dA*dG*dG*dG*dA*d[5mC]*dG*dG*dA*eA*eG*eG*eT*eG) [compound 422263] |  | 19 | 
422264 (antisense e[5mC]*eG*dG*dA*dA*dG*dA*dA*dG*dG*dG*dA*d[5mC]*dG*dG*eA*eA*eG*eG*eT) [compound 422264] |  | 24 | 
422265 (antisense eG*e[5mC]*dG*dG*dA*dA*dG*dA*dA*dG*dG*dG*dA*d[5mC]*dG*eG*eA*eA*eG*eG) [compound 422265] |  | 34 | 
422266 (antisense e[5mC]*eG*d[5mC]*dG*dG*dA*dA*dG*dA*dA*dG*dG*dG*dA*d[5mC]*eG*eG*eA*eA*eG) [compound 422266] |  | 13 | 
422267 (antisense eG*e[5mC]*dG*d[5mC]*dG*dG*dA*dA*dG*dA*dA*dG*dG*dG*dA*e[5mC]*eG*eG*eA*eA) [compound 422267] |  | 38 | 
422268 (antisense eA*eG*d[5mC]*dG*d[5mC]*dG*dG*dA*dA*dG*dA*dA*dG*dG*dG*eA*e[5mC]*eG*eG*eA) [compound 422268] |  | 63 | 
422269 (antisense eG*eA*dG*d[5mC]*dG*d[5mC]*dG*dG*dA*dA*dG*dA*dA*dG*dG*eG*eA*e[5mC]*eG*eG) [compound 422269] |  | 27 | 
422270 (antisense eT*eG*dA*dG*d[5mC]*dG*d[5mC]*dG*dG*dA*dA*dG*dA*dA*dG*eG*eG*eA*e[5mC]*eG) [compound 422270] |  | 15 | 
422271 (antisense e[5mC]*eT*dG*dA*dG*d[5mC]*dG*d[5mC]*dG*dG*dA*dA*dG*dA*dA*eG*eG*eG*eA*e[5mC]) [compound 422271] |  | 32 | 
422272 (antisense eA*e[5mC]*dT*dG*dA*dG*d[5mC]*dG*d[5mC]*dG*dG*dA*dA*dG*dA*eA*eG*eG*eG*eA) [compound 422272] |  | 12 | 
422273 (antisense eT*eA*d[5mC]*dT*dG*dA*dG*d[5mC]*dG*d[5mC]*dG*dG*dA*dA*dG*eA*eA*eG*eG*eG) [compound 422273] |  | 0 | 
422274 (antisense eT*eT*dA*d[5mC]*dT*dG*dA*dG*d[5mC]*dG*d[5mC]*dG*dG*dA*dA*eG*eA*eA*eG*eG) [compound 422274] |  | 24 | 
422275 (antisense eG*eT*dT*dA*d[5mC]*dT*dG*dA*dG*d[5mC]*dG*d[5mC]*dG*dG*dA*eA*eG*eA*eA*eG) [compound 422275] |  | 42 | 
422276 (antisense eG*eG*dT*dT*dA*d[5mC]*dT*dG*dA*dG*d[5mC]*dG*d[5mC]*dG*dG*eA*eA*eG*eA*eA) [compound 422276] |  | 66 | 
422277 (antisense e[5mC]*e[5mC]*dT*dG*dA*dG*dG*d[5mC]*d[5mC]*dA*dG*d[5mC]*dA*dG*dA*eT*e[5mC]*eA*e[5mC]*eG) [compound 422277] |  |  | % Inhibition of human Factor 7 mRNA levels [3]: 56%
422278 (antisense eG*e[5mC]*d[5mC]*dT*dG*dA*dG*dG*d[5mC]*d[5mC]*dA*dG*d[5mC]*dA*dG*eA*eT*e[5mC]*eA*e[5mC]) [compound 422278] |  |  | % Inhibition of human Factor 7 mRNA levels [3]: 64%
422279 (antisense eA*eG*d[5mC]*d[5mC]*dT*dG*dA*dG*dG*d[5mC]*d[5mC]*dA*dG*d[5mC]*dA*eG*eA*eT*e[5mC]*eA) [compound 422279] |  |  | % Inhibition of human Factor 7 mRNA levels [3]: 56%
422280 (antisense e[5mC]*eA*dG*d[5mC]*d[5mC]*dT*dG*dA*dG*dG*d[5mC]*d[5mC]*dA*dG*d[5mC]*eA*eG*eA*eT*e[5mC]) [compound 422280] |  |  | % Inhibition of human Factor 7 mRNA levels [3]: 52%
422281 (antisense eG*e[5mC]*dA*dG*d[5mC]*d[5mC]*dT*dG*dA*dG*dG*d[5mC]*d[5mC]*dA*dG*e[5mC]*eA*eG*eA*eT) [compound 422281] |  |  | % Inhibition of human Factor 7 mRNA levels [3]: 57%
422282 (antisense eA*eG*d[5mC]*dA*dG*d[5mC]*d[5mC]*dT*dG*dA*dG*dG*d[5mC]*d[5mC]*dA*eG*e[5mC]*eA*eG*eA) [compound 422282] |  |  | % Inhibition of human Factor 7 mRNA levels [3]: 48%
422283 (antisense e[5mC]*eA*dG*d[5mC]*dA*dG*d[5mC]*d[5mC]*dT*dG*dA*dG*dG*d[5mC]*d[5mC]*eA*eG*e[5mC]*eA*eG) [compound 422283] |  |  | % Inhibition of human Factor 7 mRNA levels [3]: 50%
